Molecules are shown by their SMILES.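 Five compound concentrations were applied to cells in 96-well plates for 48 hours; endpoints were derived by simple linear interpolation of the resulting dose-response curve. The concentration for 50% growth inhibition is given as GI50.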 Calls of active or inactive are those of the source. No stated cut-off is given here; in the data, active = GI50 up to about 1.1 µM and inactive = higher.

Holding throughout (assay): NCI anticancer screen, dose series, 48 h
For experiment [1], the system named is CAKI-1.
Experiment [2] relates to NCI-H226.
Experiment [3] concerns HCC 2998.
The subject of experiment [4] is EKVX.
The test system of experiment [5] is SF-539.
The test system of experiment [6] is OVCAR-4.
The subject of experiment [7] is SNB-75.
Experiment [8] has as its system LOX IMVI.
Experiment [9] deals with SN12C.
For experiment [10], the system named is SW-620.
The subject of experiment [11] is OVCAR-3.
Experiment [12] deals with SF-295.
Experiment [13] relates to SK-MEL-5.
Experiment [14] deals with KM-20L2.
Experiment [15] deals with UACC-257.
The test system of experiment [16] is U-251.
The test system of experiment [17] is BT-549.
The test system of experiment [18] is MDA-N.
Experiment [19] deals with MDA-MB-435.
The test system of experiment [20] is NCI/ADR-RES.

With `CCOC(=O)C(=O)Nc1nc2c(OCC)cccc2s1`, the GI50 in [1], in experiment [2], in experiment [3], in [4], in experiment [5] and in experiment [6] was > 100 µM (inactive) each time. Moreover, the GI50 in experiment [7], in experiment [8], in [9], in experiment [10], in experiment [11] and in experiment [12] was > 100 µM (inactive) throughout. Moreover, the GI50 in experiment [13], in experiment [14], in [15] and in experiment [16] was > 100 µM (inactive) throughout.
Take `O=C(CCc1nnc2s/c(=C\c3ccc([N+](=O)[O-])cc3)c(=O)n12)Nc1ccc(Cl)c(Cl)c1`: the GI50 in experiment [1] is 41.9 µM (inactive); in experiment [2] it was 14.4 µM (inactive); in experiment [3], 22.3 µM (inactive); in experiment [5], 17.9 µM (inactive); in [6], 18.6 µM (inactive); in [7], 10.4 µM (inactive). Moreover, the GI50 in [8] was 15.3 µM (inactive); in experiment [9], 25.2 µM (inactive); in experiment [10], 25.2 µM (inactive); in experiment [11], 13.1 µM (inactive); in experiment [12] it was 25.1 µM (inactive); in [13] it was 58.1 µM (inactive). For the same molecule, the GI50 in experiment [14] was 47.9 µM (inactive); in experiment [15], 85.1 µM (inactive); in experiment [16], 16.6 µM (inactive).
Consider `N#C/C1=C(\N)CCSSSC1`, for which the GI50 in experiment [1] was 58.7 µM (inactive); in experiment [2], 33.6 µM (inactive); in experiment [3], 54.8 µM (inactive); in [4], 45.9 µM (inactive); in experiment [5], 33.4 µM (inactive); in [6], 33.9 µM (inactive). Further, the GI50 is 42.3 µM (inactive) in experiment [7]; 42.4 µM (inactive) in [8]; 36.3 µM (inactive) in experiment [9]; 44.6 µM (inactive) in experiment [10]; 46.3 µM (inactive) in [11]; 19.6 µM (inactive) in experiment [12]. The GI50 in [13] is 26.1 µM (inactive); in experiment [14] it was 26.9 µM (inactive); in experiment [15], 35.8 µM (inactive); in experiment [16], 31.4 µM (inactive).
On to `CCC1=C(CC2NCCc3ccccc32)CC2c3cc(OC)c(OC)cc3CCN2C1` (stereo not drawn), for which the GI50 is 0.473 µM (active) in [1]; 0.757 µM (active) in experiment [2]; 0.432 µM (active) in experiment [3]; 0.305 µM (active) in experiment [4]; 0.578 µM (active) in experiment [5]; 0.237 µM (active) in [6]. Moreover, the GI50 in [17] was 2.14 µM (inactive); in experiment [18], 0.452 µM (active); in [7], 0.531 µM (active); in experiment [8] it was 0.359 µM (active); in experiment [9], 0.5 µM (active); in experiment [10] it was 0.384 µM (active). Further, the GI50 in experiment [19] was 0.327 µM (active); in experiment [11] it was 0.841 µM (active); in experiment [12], 0.565 µM (active); in experiment [20], 1.3 µM (inactive); in [13], 0.585 µM (active); in experiment [14], 0.891 µM (active). The figures for the GI50 in experiment [15] and in experiment [16] were 1.02 µM (active) and 0.55 µM (active), respectively.
With `CCc1cc(Cc2cc(CC)c(NC(=O)C3=CC(=O)CC(c4ccc(OC)cc4)O3)c(CC)c2Cl)c(Cl)c(CC)c1NC(=O)C1=CC(=O)CC(c2ccc(OC)cc2)O1` (stereo not drawn), the GI50 is 27.7 µM (inactive) in [1]; 24.8 µM (inactive) in experiment [2]; 16.7 µM (inactive) in experiment [3]; 30.5 µM (inactive) in experiment [4]; 20.2 µM (inactive) in experiment [5]; 25.2 µM (inactive) in experiment [6]. Further, the GI50 in experiment [7] is 20 µM (inactive); in experiment [8], 18.1 µM (inactive); in experiment [9], 22 µM (inactive); in experiment [10] it was 5.9 µM (inactive); in experiment [11], 19.1 µM (inactive); in [12], 19.8 µM (inactive). Moreover, the GI50 is 20.3 µM (inactive) in experiment [13], 26.7 µM (inactive) in experiment [14], 16 µM (inactive) in experiment [15] and 12.9 µM (inactive) in experiment [16].
Turning to `O=C(c1ccccc1)C(c1ccccc1)C1(O)C(=O)Nc2ccccc21` (stereo not drawn), the GI50 in experiment [1], in experiment [2], in experiment [3], in [4], in experiment [5] and in experiment [6] was > 100 µM (inactive) throughout. Also, the GI50 in [7] was 43.6 µM (inactive); in [8], > 100 µM (inactive); in [9] it was > 100 µM (inactive); in [10], > 100 µM (inactive); in experiment [11] it was > 100 µM (inactive); in [12] it was > 100 µM (inactive). Also, the GI50 in experiment [13], in [14] and in experiment [15] was > 100 µM (inactive) throughout.
Take `CC(=O)O[C@H]1CCN2C(=O)C=CC(OCc3ccccc3)C12` (stereo partly drawn): the GI50 in experiment [1], in [2], in experiment [3], in [4], in experiment [5] and in [6] was > 100 µM (inactive) in each case. Besides, the GI50 in experiment [7], in experiment [8], in [9], in experiment [10], in [11] and in experiment [12] was > 100 µM (inactive) each time. Besides, the GI50 in [13], in experiment [14], in [15] and in [16] was > 100 µM (inactive) each time.
As for `CCCCCCCCCCCCCCCC(=O)OCC1OC(n2ccc(N)nc2=O)C(O)C1O` (stereo not drawn), the GI50 in [1] is 5.36 µM (inactive); in experiment [2] it was > 100 µM (inactive); in experiment [3], 8.47 µM (inactive); in experiment [4], > 69 µM (inactive); in [5], > 100 µM (inactive); in experiment [6], > 100 µM (inactive). Moreover, the GI50 in experiment [17] was > 100 µM (inactive); in experiment [18], > 100 µM (inactive); in [7] it was > 100 µM (inactive); in experiment [8], 4.7 µM (inactive); in [9], 9.95 µM (inactive); in experiment [19], 6.75 µM (inactive). Also, the GI50 in experiment [11] was > 28.2 µM (inactive); in experiment [12], 44.8 µM (inactive); in experiment [20], > 48.3 µM (inactive); in experiment [13] it was 18.5 µM (inactive); in [14] it was > 24.8 µM (inactive); in [15], 33.4 µM (inactive). The GI50 in experiment [16] is 21.8 µM (inactive).
As to `O=c1c2ccccc2n2nnc3ccc(NCCNCCO)c1c32`, the GI50 in [1] is 1.84 µM (inactive); in experiment [2], 2.29 µM (inactive); in experiment [3] it was 1.51 µM (inactive); in [4] it was 2.08 µM (inactive); in [5], 3.78 µM (inactive); in experiment [6] it was 1.71 µM (inactive). The GI50 was 2.02 µM (inactive) in [17]; 1.69 µM (inactive) in experiment [18]; 1.42 µM (inactive) in experiment [7]; 1.18 µM (inactive) in experiment [8]; 1.43 µM (inactive) in [9]; 0.71 µM (active) in experiment [10]. For the same molecule, the GI50 was 1.34 µM (inactive) in experiment [19]; 1.7 µM (inactive) in experiment [11]; 2.06 µM (inactive) in experiment [12]; 1.08 µM (active) in experiment [20]; 1.53 µM (inactive) in [13]; 1.29 µM (inactive) in experiment [14]. For the same molecule, the values for the GI50 in experiment [15] and in experiment [16] were 3.32 µM (inactive) and 0.944 µM (active), respectively.

These data come from ChEMBL document CHEMBL1201862, “PubChem BioAssay data set” (2004).
